# In patent US5015661A, “Chromanes and their pharmaceutical compositions and methods” (Hoffmann-La Roche Inc., priority 1989, dated 1991):
# Biological target: T1, Δ^5 -lipoxygenase from rat basophilic leukemia (RBL-1) cells (Rattus norvegicus, UniProt P12527)
# T1 construct: endogenous in cells; host or cells: RBL-1 rat basophilic leukemia cells (ATCC CRL 1378); 113,000×g supernatant (cytosolic fraction)
# T1 sequence (P12527 1-673): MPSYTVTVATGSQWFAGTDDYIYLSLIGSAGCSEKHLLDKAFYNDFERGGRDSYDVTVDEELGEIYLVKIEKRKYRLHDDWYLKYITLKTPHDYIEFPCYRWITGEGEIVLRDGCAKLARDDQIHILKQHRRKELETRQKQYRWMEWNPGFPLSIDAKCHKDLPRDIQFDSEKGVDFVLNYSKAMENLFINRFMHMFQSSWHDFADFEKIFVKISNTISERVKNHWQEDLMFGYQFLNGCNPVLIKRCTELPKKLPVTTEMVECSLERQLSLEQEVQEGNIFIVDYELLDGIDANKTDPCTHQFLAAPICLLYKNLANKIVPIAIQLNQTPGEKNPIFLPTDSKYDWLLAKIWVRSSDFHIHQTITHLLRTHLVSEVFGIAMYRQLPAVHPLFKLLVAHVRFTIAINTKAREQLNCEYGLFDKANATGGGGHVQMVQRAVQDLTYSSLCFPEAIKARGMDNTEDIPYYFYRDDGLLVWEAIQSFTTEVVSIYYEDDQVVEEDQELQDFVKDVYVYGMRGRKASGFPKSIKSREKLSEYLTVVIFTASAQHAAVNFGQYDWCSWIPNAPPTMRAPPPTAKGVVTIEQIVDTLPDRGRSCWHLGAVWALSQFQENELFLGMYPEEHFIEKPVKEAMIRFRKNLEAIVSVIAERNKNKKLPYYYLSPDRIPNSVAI
# Test: In vitro test for Δ^5 -lipoxygenase inhibitors (5-LO), RBL-1 cell enzyme, 5-HETE radioimmunoassay
# Type: biochemical
# Details: RBL-1 5-LO; 10 min preincubation; 8.25 μM arachidonic acid, 10 min at 37° C.; 5-HETE formation; read-out: 5-LO IC-50
# How it was run: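 Cytosolic (113,000×g supernatant) 5-LO from RBL-1 cells was preincubated with compound 10 min at 30° C, then reacted 10 min at 37° C with 8.25 μM arachidonic acid in Tris-HCl pH 7.2 with glutathione, indomethacin, CaCl2 and ATP. The reaction was stopped with citric acid (pH 3.5), and 5-HETE formed was quantified by radioimmunoassay.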
row,SMILES,IC50 [nM]
1,"Cc1c(C)c2c(c(C)c1O)CCC(C)(C#Cc1ccccc1O)O2 (racemic) [Example 50 (2-HO-phenyl), rac-3,4-Dihydro-2-[(2-hydroxyphenyl)ethynyl]-2,5,7,8-tetramethyl-2H-1-benzopyran-6-ol]",6
2,"Cc1c(C)c2c(c(C)c1O)CCC(C)(c1cc3ccccc3o1)O2 (racemic) [Example 50 (CH; H, H, H), rac-2-(2-Benzofuranyl)-3,4-dihydro-2,5,7,8-tetramethyl-2H-1-benzopyran-6-ol]",12
3,"Cc1ccc2oc(C3(C)CCc4c(C)c(O)c(C)c(C)c4O3)cc2n1 (racemic) [Example 51, rac-3,4-Dihydro-2-(5-methylfuro[3,2[b]pyridin-2-yl)-2,5,7,8-tetramethyl-2H-1-benzopyran-6ol]",3
4,"Cc1c(C)c2c(c(C)c1O)CCC(C)(c1cc3ncccc3o1)O2 (racemic) [Example 52, rac-3,4-Dihydro-2-(furo[3,2-b]pyridine-2-yl)-2,5,7,8-tetramethyl-2H-1-benzopyran-6-ol]",18
5,"CCCc1c(O)c(C(C)=O)cc2cc(C3(C)CCc4c(C)c(O)c(C)c(C)c4O3)oc12 (racemic) [Example 53, rac-1-2-(3,4-Dihydro-6-hydroxy-2,5,7,8-tetramethyl-2H-1-benzopyran-2-yl)-6-hydroxy-7-propylbenzofuran-5-yl]ethanone]",17
6,"COc1cc(CO)cc2cc(C3(C)CCc4c(C)c(O)c(C)c(C)c4O3)oc12 (racemic) [Example 55, rac-2-(3,4-Dihydro-6-hydroxy-2,5,7,8-tetramethyl-2H-1-benzopyran-2-yl)-7-methoxybenzofuran-5-methanol]",3
7,"Cc1c(C)c2c(c(C)c1O)CCC(C)(CCc1cccs1)O2 (racemic) [Example 57, rac-3,4-Dihydro-2,5,7,8-tetramethyl-2-[2-(2-thienyl)ethyl]-2H-1-benzo-pyran-6-ol]",50
8,"Cc1c(C)c2c(c(C)c1O)CCC(C)(CCc1ccccn1)O2 (racemic) [Example 58, rac-3,4-Dihydro-2,5,7,8-tetramethyl-2-[2-(2-pyridinyl)ethyl]-2H-1-benzopyran-6-ol]",60
9,"Cc1c(C)c2c(c(C)c1O)CCC(C)(CCc1cccnc1)O2 (racemic) [Example 59, rac-3,4-Dihydro-2,5,7,8-tetramethyl-2-[2-(3-pyridinyl)ethyl]-2H-1-benzopyran-6-ol]",30
10,"COc1ccc(CCC2(C)CCc3c(C)c(O)c(C)c(C)c3O2)cc1OC(C)=O (racemic) [Example 60, rac-2-{2-[3-(Acetyloxy)-4-methoxyphenyl]ethyl}-3,4-dihydro-2,5,7,8-tetramethyl-2H-1-benzopyran-6ol]",56
11,"Cc1c(C)c2c(c(C)c1O)CCC(C)(CCc1ccc(O)c(O)c1)O2 (racemic) [Example 61, rac-4-[2-(3,4-Dihydro-6-hydroxy-2,5,7,8-tetramethyl-2H-1-benzopyran-2-yl)ethyl]-1,2-benzenediol]",15
12,"COc1cccc(CCC2(C)CCc3c(C)c(O)c(C)c(C)c3O2)c1 (racemic) [Example 62, rac-3,4-Dihydro-2-[2-(3-methoxyphenyl)ethyl]-2,5,7,8-tetramethyl-2H-1-benzopyran-6-ol]",120
13,"COC(=O)c1cc(CCC2(C)CCc3c(C)c(O)c(C)c(C)c3O2)ccc1O (racemic) [Example 63, rac-5-[2-(3,4-Dihydro-6-hydroxy-2,5,7,8-tetramethyl-2H-1-benzopyran-2-yl)ethyl]-2-hydroxybenzoic acid methyl ester]",80
14,"Cc1c(C)c2c(c(C)c1O)CCC(C)(CCc1ccc(-c3cccnc3)cc1)O2 (racemic) [Example 64, rac-3,4-Dihydro-2,5,7,8-tetramethyl-2-{2-[4-(3-pyridinyl)-phenyl]ethyl}-2H-1-benzopyran-6-ol]",46
15,"Cc1c(C)c2c(c(C)c1O)CCC(C)(CCc1ccc(-c3ccccn3)s1)O2 (racemic) [Example 65, rac-3,4-Dihydro-2,5,7,8-tetramethyl-2-{2-[5-(2-pyridinyl)-2-thienyl]ethyl}-2H-1-benzopyran-6ol]",170
16,"CCCCc1ccc(CCC2(C)CCc3c(C)c(O)c(C)c(C)c3O2)s1 (racemic) [Example 66, rac-2-[2-(5-Butyl-2-thienyl)ethyl]-3,4-dihydro-2,5,7,8-tetramethyl-2H-1-benzopyran-6-ol]",140
17,"Cc1c(C)c2c(c(C)c1O)CC[C@](C)(C#Cc1cccs1)O2 [Example 5, (R)-3,4-Dihydro-2,5,7,8-tetramethyl-2-[(2-thienyl)ethynyl]-2H-1-benzopvran-6-ol]",15
18,"Cc1c(C)c2c(c(C)c1O)CC[C@@](C)(C#Cc1cccs1)O2 [Example 13, (S)-3,4-Dihydro-2,5,7,8-tetramethyl-2-[(2-thienyl)ethynyl]-2H-1-benzopyran-6-ol]",17
19,Cc1c(C)c2c(c(C)c1O)CCC(C)(C#Cc1ccc3c(c1)N(C)C(=O)CO3)O2 (stereo not shown) [Example 48],32
